Laboratory results from patent publication US20120220603A1, “SUBSTITUTED HETEROCYCLIC DERIVATIVES FOR THE TREATMENT OF PAIN AND EPILEPSY” (ZALICUS PHARMACEUTICALS LTD., priority 2009, published 2012).

What was measured:
[1] = Rat Early Pharmacokinetic (EPK) study; assay type: in vivo; details: PO, 3 mg/kg, formulation PG (propylene glycol)
Experimental: Male Sprague-Dawley rats were dosed via oral (PO) gavage in the detailed formulation. Blood samples were collected from the animals at 6 timepoints out to 4 hours post-dose. Pharmacokinetic analysis was performed on the LC-MS/MS measured concentrations for each timepoint of each compound.

[2] = biological target: T1, human Nav1.5 channel (Homo sapiens, UniProt Q14524); assay: NaV1.5 sodium channel screening assay, PatchXpress automated electrophysiology, cardiac action potential waveform 1 Hz; assay type: cell-based; details: cardiac action potential waveform at 1 Hz; HEK cells; read-out: HNAv 1.5 Cardiac AP 1 Hz IC50
T1 construct: expressed in transfected cells; host or cells: HEK cells
Experimental: Inhibition of the TTX-resistant NaV1.5 sodium channel, a key cardiac ion channel, can have profound effects on the duration and amplitude of the cardiac action potential and can result in arrhythmias and other heart malfunctions. To assess the potential cardiac liability of compounds at an early stage in the drug discovery process, a NaV1.5 sodium channel screening assay is performed on Molecular Device's PatchXpress™ automated electrophysiology platform. Under voltage-calmp conditions, NaV1.5 currents were recorded from HEK cells expressing the human Nav1.5 channel in the absence and presence of increasing concentrations of the test compound to obtain an IC50 value. The external recording solution contained (in mM): 90 TEACl, 50 NaCl, 1.8 CaCl, 1 MgCl2, 10 HEPES, 10 glucose, adjusted to pH 7.4 with TEA-OH and to 300 mOsm with sucrose (if necessary), while the internal patch pipette solution contained (in mM): 129 CsF, 2 MgCl2, 11 EGTA, 10 HEPES, 3 Na2ATP adjusted to pH 7.2 with CsOH and to 290 mOsm with sucrose (if necessary). NaV1.5 channel currents were evoked using a cardiac action potential waveform at 1 Hz, digitized at 31.25 kHz and low-pass filtered at 12 kHz.

[3] = tested on: seizures induced by 6 Hz corneal stimulation in CF1 mice; assay: 6 Hz psychomotor seizure model of partial epilepsy; assay type: in vivo, mouse; parameters: Epilepsy 6 Hz (% protected): concentration or dose not given beside the values; details: 32 mA
Experimental: Compounds were evaluated for the protection against seizures induced by a 6 Hz, 0.2 ms rectangular pulse width of 3 s duration, at a stimulus intensity of 32 mA (CC97) applied to the cornea of male CF1 mice (20-30 g) according to procedures described by Barton et al, “Pharmacological Characterization of the 6 Hz Psychomotor Seizure Model of Partial Epilepsy,” Epilepsy Res. 47(3):217-27 (2001). Seizures are characterised by the expression of one or more of the following behaviours: stun, forelimb clonus, twitching of the vibrissae and Straub-tail immediately following electrical stimulation.

[4] = tested on: Rat SNL tactile allodynia; assay: L5/L6 spinal nerve ligation (SNL) Chung pain model, tactile allodynia (von Frey); assay type: in vivo
Source text: The Spinal Nerve Ligation is an animal model representing peripheral nerve injury generating a neuropathic pain syndrome. In this model experimental animals develop the clinical symptoms of tactile allodynia and hyperalgesia. L5/L6 Spinal nerve ligation (SNL) injury was induced using the procedure of Kim and Chung (Kim et al., Pain 50:355-363 (1992)) in male Sprague-Dawley rats (Harlan; Indianapolis, Ind.) weighing 200 to 250 grams.
Anaesthesia was induced with 2% isofluorane in O2 at 2 L/min and maintained with 0.5% isofluorane in O2. Rats were then shaved and aseptically prepared for surgeries. A 2 cm paraspinal incision was made at the level of L4-S2. L4/L5 was exposed by removing the transverse process above the nerves with a small rongeur. The L5 spinal nerve is the larger of the two visible nerves below the transverse process and lies closest to the spine. The L6 spinal nerve is located beneath the corner of the slope bone. A home-made glass Chung rod was used to hook L5 or L6 and a pre-made slip knot of 4.0 silk suture was placed on the tip of the rod just above the nerve and pulled underneath to allow for the tight ligation. The L5 and L6 spinal nerves were tightly ligated distal to the dorsal root ganglion. The incision was closed, and the animals were allowed to recover for 5 days.
Sham control rats underwent the same operation and handling as the experimental animals, but without SNL.
Prior to initiating drug delivery, baseline behavioural testing data is obtained. At selected times after infusion of the Test or Control Article behavioural data can then be collected again.
The assessment of tactile allodynia consisted of measuring the withdrawal threshold of the paw ipsilateral to the site of nerve injury in response to probing with a series of calibrated von Frey filaments (innocuous stimuli). Animals were acclimated to the suspended wire-mesh cages for 30 min before testing. Each von Frey filament was applied perpendicularly to the plantar surface of the ligated paw of rats for 5 sec. A positive response was indicated by a sharp withdrawal of the paw. For rats, the first testing filament is 4.31. Measurements were taken before and after administration of test articles. […] The protocol was repeated until three changes in behaviour were determined (“up and down” method) (Chaplan et al., J. Neurosci. Methods 53:55-63 (1994)). The 50% paw withdrawal threshold was determined as (10^[Xf+kδ])/10,000, where Xf=the value of the last von Frey filament employed, k=Dixon value for the positive/negative pattern, and S=the logarithmic difference between stimuli. The cut-off values for rats were no less than 0.2 g and no higher than 15 g (5.18 filament); for mice no less than 0.03 g and no higher than 2.34 g (4.56 filament). A significant drop of the paw withdrawal threshold compared to the pre-treatment baseline is considered tactile allodynia. […]

[5] = tested on: Lamina I/II spinal cord neurons; assay: Lamina assay: current-clamp recordings on lamina I/II spinal cord neurons; assay type: cell-based, rat; details: Lamina I and II, tonic firing neurons, current-clamp
Source text: Male Wistar rats (P6 to P9 for voltage-clamp and P15 to P18 for current-clamp recordings) were anaesthetized through intraperitoneal injection of Inactin (Sigma). The spinal cord was then rapidly dissected out and placed in an ice-cold solution protective sucrose solution containing (in mM): 50 sucrose, 92 NaCl, 15 D-Glucose, 26 NaHCO3, 5 KCl, 1.25 NaH2PO4, 0.5 CaCl2, 7 MgSO4, 1 kynurenic acid, and bubbled with 5% CO2/95% O2. The meninges, dura, and dorsal and ventral roots were then removed from the lumbar region of the spinal cord under a dissecting microscope. The “cleaned” lumbar region of the spinal cord was glued to the vibratome stage and immediately immersed in ice cold, bubbled, sucrose solution. For current-clamp recordings, 300 to 350 μm parasagittal slices were cut to preserve the dendritic arbour of lamina I neurons, while 350 to 400 μm transverse slices were prepared for voltage-clamped […] channel recordings. Slices were allowed to recover for 1 hour at 35° C. in Ringer solution containing (in mM): 125 NaCl, 20 D-Glucose, 26 NaHCO3, 3 KCl, 1.25 NaH2PO4, 2 CaCl2, 1 MgCl2, 1 kynurenic acid, 0.1 picrotoxin, bubbled with 5% CO2/95% O2. The slice recovery chamber was then returned to room temperature (20 to 22° C.) and all recordings were performed at this temperature.
Neurons were visualized using IR-DIC optics (Zeiss Axioskop 2 FS plus, Gottingen, Germany), and neurons from lamina I and the outer layer of lamina II were selected based on their location relative to the substantia gelatinosa layer. Neurons were patch-clamped using borosilicate glass patch pipettes with resistances of 3 to 6 MΩ. Current-clamp recordings of lamina I/II neurons in the intact slice, the external recording solution was the above Ringer solution, while the internal patch pipette solution contained (in mM): 140 KGluconate, 4 NaCl, 10 HEPES, 1 EGTA, 0.5 MgCl2, 4 MgATP, 0.5 Na2GTP, adjusted to pH 7.2 with 5 M KOH and to 290 mOsm with D-Mannitol (if necessary). Only tonic firing neurons were selected for current-clamp experiments, while phasic, delayed onset and single spike neurons were discarded (22). Recordings were digitized at 50 kHz and low-pass filtered at 2.4 kHz.

[6] = tested on: mice on rotarod; assay: Mouse rotarod assay (minimal muscular or neurological impairment); assay type: in vivo
Experimental: To assess a compound's undesirable side effects (toxicity), animals were monitored for overt signs of impaired neurological or muscular function. In mice, the rotarod procedure (Dunham and Miya, J. Am. Pharmacol. Assoc. 46:208-209 (1957)) is used to disclose minimal muscular or neurological impairment (MMI). When a mouse is placed on a rod that rotates at a speed of 6 rpm, the animal can maintain its equilibrium for long periods of time. The animal is considered toxic if it falls off this rotating rod three times during a 1-min period.

T1 sequence (Q14524 whole entry): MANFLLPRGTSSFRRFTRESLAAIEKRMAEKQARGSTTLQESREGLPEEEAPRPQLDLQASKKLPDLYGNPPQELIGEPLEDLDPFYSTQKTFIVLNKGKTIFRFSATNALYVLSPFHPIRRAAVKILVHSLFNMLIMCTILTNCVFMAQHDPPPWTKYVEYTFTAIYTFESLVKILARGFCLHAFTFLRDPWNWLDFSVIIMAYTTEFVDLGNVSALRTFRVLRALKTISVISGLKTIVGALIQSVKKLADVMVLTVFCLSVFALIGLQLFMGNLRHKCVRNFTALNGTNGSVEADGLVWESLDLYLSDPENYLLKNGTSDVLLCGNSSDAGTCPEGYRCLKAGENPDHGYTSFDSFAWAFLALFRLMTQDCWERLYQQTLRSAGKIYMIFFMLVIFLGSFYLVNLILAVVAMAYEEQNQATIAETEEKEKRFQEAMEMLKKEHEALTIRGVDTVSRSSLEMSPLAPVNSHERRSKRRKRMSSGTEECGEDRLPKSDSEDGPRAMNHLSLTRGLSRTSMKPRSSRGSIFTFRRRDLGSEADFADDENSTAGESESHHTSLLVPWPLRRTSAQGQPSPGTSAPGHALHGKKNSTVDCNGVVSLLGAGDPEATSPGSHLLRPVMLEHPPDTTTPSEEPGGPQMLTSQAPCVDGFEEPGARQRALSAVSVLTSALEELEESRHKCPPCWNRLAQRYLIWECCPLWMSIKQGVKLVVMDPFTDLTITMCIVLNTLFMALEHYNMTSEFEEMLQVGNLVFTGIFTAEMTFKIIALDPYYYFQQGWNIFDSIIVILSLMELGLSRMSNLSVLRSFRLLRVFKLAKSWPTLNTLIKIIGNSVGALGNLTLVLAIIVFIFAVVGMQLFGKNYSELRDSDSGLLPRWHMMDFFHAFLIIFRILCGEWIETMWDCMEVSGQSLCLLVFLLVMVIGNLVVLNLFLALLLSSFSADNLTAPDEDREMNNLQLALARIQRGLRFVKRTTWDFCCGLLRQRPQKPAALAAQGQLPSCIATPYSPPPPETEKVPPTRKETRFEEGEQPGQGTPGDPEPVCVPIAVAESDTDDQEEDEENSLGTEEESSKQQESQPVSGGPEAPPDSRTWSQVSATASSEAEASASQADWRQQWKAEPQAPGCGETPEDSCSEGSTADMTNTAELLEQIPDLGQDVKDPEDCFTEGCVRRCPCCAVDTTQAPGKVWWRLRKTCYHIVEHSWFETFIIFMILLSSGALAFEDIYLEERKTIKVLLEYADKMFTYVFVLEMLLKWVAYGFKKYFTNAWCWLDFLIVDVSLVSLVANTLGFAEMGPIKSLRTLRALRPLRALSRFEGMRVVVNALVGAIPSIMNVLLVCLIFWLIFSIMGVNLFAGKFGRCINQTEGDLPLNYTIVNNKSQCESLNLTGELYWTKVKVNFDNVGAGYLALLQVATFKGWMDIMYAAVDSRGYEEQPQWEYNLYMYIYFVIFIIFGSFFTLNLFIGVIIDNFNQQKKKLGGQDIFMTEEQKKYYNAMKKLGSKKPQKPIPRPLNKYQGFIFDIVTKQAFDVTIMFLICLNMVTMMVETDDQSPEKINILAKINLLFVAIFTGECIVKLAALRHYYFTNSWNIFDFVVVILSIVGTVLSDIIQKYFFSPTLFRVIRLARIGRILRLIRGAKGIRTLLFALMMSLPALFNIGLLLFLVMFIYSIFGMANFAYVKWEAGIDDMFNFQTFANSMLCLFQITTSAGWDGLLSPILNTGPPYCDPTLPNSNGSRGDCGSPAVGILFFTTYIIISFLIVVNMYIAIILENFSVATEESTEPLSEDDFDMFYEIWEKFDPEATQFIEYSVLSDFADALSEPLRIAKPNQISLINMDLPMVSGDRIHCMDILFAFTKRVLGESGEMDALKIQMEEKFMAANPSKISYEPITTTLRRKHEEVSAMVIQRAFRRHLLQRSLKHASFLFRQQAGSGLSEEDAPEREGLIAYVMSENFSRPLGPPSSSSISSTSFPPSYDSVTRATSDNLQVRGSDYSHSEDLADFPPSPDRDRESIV

| Dose Normalized AUC [1] | Dose Normalized Cmax [1] | Tmax ([1]; male, Sprague-Dawley, blood) | Compound | IC50 [2] | Epilepsy 6 Hz (% protected) ([3]; 0.25 hr) | Epilepsy 6 Hz (% protected) ([3]; 0.5 hr) | Epilepsy 6 Hz (% protected) ([3]; 1 hr) | Epilepsy 6 Hz (% protected) ([3]; 2 hr) | Epilepsy 6 Hz (% protected) ([3]; 4 hr) | Rat SNL Tactile Allodynia (% Antiallodynia) ([4]; 1 hour) | Rat SNL Tactile Allodynia (% Antiallodynia) ([4]; 2 hours) | Rat SNL Tactile Allodynia (% Antiallodynia) ([4]; 4 hours) | % Spike Change (Mean; % change from control) [5] | % Impaired ([6]; 0.25 hr) | % Impaired ([6]; 0.5 hr) | % Impaired ([6]; 1 hr) | % Impaired ([6]; 2 hr) | % Impaired ([6]; 4 hr) |
| --- | --- | --- | --- | --- | --- | --- | --- | --- | --- | --- | --- | --- | --- | --- | --- | --- | --- | --- |
| 108 nM·h | 48 nM | 1.8 h | O=C(CN1CCNCC1)Nc1cc(C(F)(F)F)cc(C(F)(F)F)c1 [Compound 5, N-(3,5-bis(trifluoromethyl)phenyl)-2-(piperazin-1-yl)acetamide] | 40 µM | – | – | – | – | – | – | – | – | – | – | – | – | – | – |
| – | – | – | O=C(CC1CCNCC1)Nc1cc(C(F)(F)F)cc(C(F)(F)F)c1 [Compound 19, N-(3,5-bis(trifluoromethyl)phenyl)-2-(piperidin-4-yl)acetamide] | – | 100% | 100% | 100% | 100% | 0% | 47% | 39% | 32% | −30.3% | 0% | 75% | 100% | 100% | 100% |
